Source: patent US20140288052A1, “SUBSTITUTED BICYCLIC AZA-HETEROCYCLES AND ANALOGUES AS SIRTUIN MODULATORS” (GlaxoSmithKline, LLC, priority 2011, published 2014)

Legend:
SIRT1 [1] = target: T1, SIRT1 (Homo sapiens, UniProt Q96EB6); assay: TAMRA based mass spectrometry assay of SIRT1 deacetylase activation; format: biochemical; conditions: TAMRA peptide substrate; for TAMRA EC1.5 (μM): concentration that results in 150% activation of SIRT1; for TAMRA % Fold Act: percent maximum fold activation relative to control (100%)
T1 sequence (Q96EB6 1-747): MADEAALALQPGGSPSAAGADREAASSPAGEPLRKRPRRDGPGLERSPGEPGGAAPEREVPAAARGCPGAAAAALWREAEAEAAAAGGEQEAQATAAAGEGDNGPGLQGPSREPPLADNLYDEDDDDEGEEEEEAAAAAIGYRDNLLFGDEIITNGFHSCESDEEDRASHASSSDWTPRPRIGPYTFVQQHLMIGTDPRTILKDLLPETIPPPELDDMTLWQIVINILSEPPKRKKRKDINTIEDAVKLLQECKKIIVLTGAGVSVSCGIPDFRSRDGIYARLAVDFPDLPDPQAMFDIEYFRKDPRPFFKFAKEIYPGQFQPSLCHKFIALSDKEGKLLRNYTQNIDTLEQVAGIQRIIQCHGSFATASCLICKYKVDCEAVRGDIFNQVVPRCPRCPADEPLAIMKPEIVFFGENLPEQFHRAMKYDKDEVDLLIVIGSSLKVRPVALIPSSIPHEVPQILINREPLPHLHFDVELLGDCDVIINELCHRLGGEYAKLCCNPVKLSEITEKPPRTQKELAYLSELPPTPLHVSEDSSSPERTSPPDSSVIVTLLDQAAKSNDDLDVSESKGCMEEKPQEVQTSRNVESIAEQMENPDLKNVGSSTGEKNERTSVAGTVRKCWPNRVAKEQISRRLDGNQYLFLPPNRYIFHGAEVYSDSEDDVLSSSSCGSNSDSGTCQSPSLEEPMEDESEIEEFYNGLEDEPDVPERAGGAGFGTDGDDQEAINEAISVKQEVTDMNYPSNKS
Description: (§1) Mass spectrometry based assays were used to identify modulators of SIRT1 activity. The TAMRA based assay utilized a peptide having 20 amino acid residues as follows: Ac-EE-K(biotin)-GQSTSSHSK(Ac)NleSTEG-K(5TMR)-EE-NH2 (SEQ ID NO: 1), wherein K(Ac) is an acetylated lysine residue and Nle is a norleucine. The peptide was labeled with the fluorophore 5TMR (excitation 540 nm/emission 580 nm) at the C-terminus. The sequence of the peptide substrate was based on p53 with several modifications. In addition, the methionine residue naturally present in the sequence was replaced with the norleucine because the methionine may be susceptible to oxidation during synthesis and purification. The Trp based assay utilized a peptide having an amino acid residues as follows: Ac-R-H-K-K(Ac)-W-NH2 (SEQ ID NO: 2).
The TAMRA based mass spectrometry assay was conducted as follows: 0.5 μM peptide substrate and 120 μM βNAD^+ was incubated with 10 nM SIRT1 for 25 minutes at 25° C. in a reaction buffer (50 mM Tris-acetate pH 8, 137 mM NaCl, 2.7 mM KCl, 1 mM MgCl2, 5 mM DTT, 0.05% BSA). The SIRT1 protein was obtained by cloning the SirT1 gene into a T7-promoter containing vector, which was then transformed and expressed in BL21(DE3) bacterial cells. Test compound was added at varying concentrations to this reaction mixture and the resulting reactions were monitored. After the 25 minute incubation with SIRT1, 10 μL of 10% formic acid was added to stop the reaction. The resulting reactions were sealed and frozen for later mass spec analysis. Determination of the amount of deacetylated substrate peptide formed (or, alternatively, the amount of O-acetyl-ADP-ribose (OAADPR) generated) by the sirtuin-mediated NAD-dependent deacetylation reaction allowed for the precise measurement of relative SIRT1 activity in the presence of varying concentrations of the test compound versus control reactions lacking the test compound.
(§2) A control for inhibition of sirtuin activity was conducted by adding 1 μL of 500 mM nicotinamide as a negative control at the start of the reaction (e.g., permits determination of maximum sirtuin inhibition). A control for activation of sirtuin activity was conducted using 10 nM of sirtuin protein, with 1 μL of DMSO in place of compound, to determine the amount of deacetylation of the substrate at a given time point within the linear range of the assay. This time point was the same as that used for test compounds and, within the linear range, the endpoint represents a change in velocity. For the above assay, SIRT1 protein was expressed and purified as follows. The SirT1 gene was cloned into a T7-promoter containing vector and transformed into BL21(DE3). The protein was expressed by induction with 1 mM IPTG as an N-terminal His-tag fusion protein at 18° C. overnight and harvested at 30,000×g. Cells were lysed with lysozyme in lysis buffer (50 mM Tris-HCl, 2 mM Tris[2-carboxyethyl] phosphine (TCEP), 10 μM ZnCl2, 200 mM NaCl) and further treated with sonication for 10 min for complete lysis. The protein was purified over a Ni-NTA column (Amersham) and fractions containing pure protein were pooled, concentrated and run over a sizing column (Sephadex S200 26/60 global). The peak containing soluble protein was collected and run on an Ion-exchange column (MonoQ). Gradient elution (200 mM-500 mM NaCl) yielded pure protein. This protein was concentrated and dialyzed against dialysis buffer (20 mM Tris-HCl, 2 mM TCEP) overnight. The protein was aliquoted and frozen at −80° C. until further use.
Sirtuin-modulating compounds of Formula (I) that activated SIRT1 were identified using the assay described above and are shown below in Table 1. The EC1.5 values represent the concentration of test compounds that result in 150% activation of SIRT1. The EC1.5 values for the activating compounds of Formula (I) are represented by A (EC1.5<1 μM), B (EC1.5 1−25 μM), C (EC1.5>25 μM). […]

SIRT1 [2] = target: T1, SIRT1; assay: Trp mass spectrometry assay of SIRT1 deacetylase activation; format: biochemical; conditions: Trp peptide substrate; for TRP EC1.5 (μM): concentration that results in 150% activation of SIRT1; for TRP % Fold Act: percent maximum fold activation relative to control (100%)
Description: as §1
The Trp mass spectrometry assay was conducted as follows. 0.5 μM peptide substrate and 120 μM βNAD^+ were incubated with 10 nM SIRT1 for 25 minutes at 25° C. in a reaction buffer (50 mM HEPES pH 7.5, […], 1 mM DTT, 0.05% BSA). The SIRT1 protein was obtained by cloning the SirT1 gene into a T7-promoter containing vector, which was then expressed in BL21(DE3) bacterial cells and purified as described in further detail below. Test compound was added at varying concentrations to this reaction mixture and the resulting reactions were monitored. After the 25 minute incubation with SIRT1, 10 μL of 10% formic acid was added to stop the reaction. The resulting reactions were sealed and frozen for later mass spec analysis. The relative SIRT1 activity was then determined by measuring the amount of O-acetyl-ADP-ribose (OAADPR) formed (or, alternatively, the amount of deacetylated Trp peptide generated) by the NAD-dependent sirtuin deacetylation reaction in the presence of varying concentrations of the test compound versus control reactions lacking the test compound. The degree to which the test agent activated deacetylation by SIRT1 was expressed as EC1.5 (i.e., the concentration of compound required to increase SIRT1 activity by 50% over the control lacking test compound), and Percent Maximum Activation (i.e., the maximum activity relative to control (100%) obtained for the test compound).
as §2
Sirtuin-modulating compounds of Formula (I) that activated SIRT1 were identified using the assay described above and are shown below in Table 1. […]

| Structure (SMILES) | TAMRA EC1.5 (μM) (SIRT1 [1]) | TAMRA % Fold Act (SIRT1 [1]) | TRP EC1.5 (μM) (SIRT1 [2]) | TRP % Fold Act (SIRT1 [2]) |
| --- | --- | --- | --- | --- |
| O=C(Nc1ccnc(N2CCOCC2)c1)c1ccnn2cc(-c3ccccc3Cl)nc12 [Compound 9] | B (EC1.5 1−25 μM) | B (Fold Activation<350%) |  |  |
| Cc1cnc(NC(=O)c2cc(N3CCOCC3)nn3cc(-c4ccccc4F)nc23)s1 [Compound 38] |  |  | C (EC1.5>25 μM) | B (Fold Activation<350%) |
| Cc1nc(C(=O)Nc2ccnc3cc(-c4cccc(C(F)(F)F)c4)nn23)c(C)s1 [Compound 68] |  |  | C (EC1.5>25 μM) | B (Fold Activation<350%) |
| O=C(Nc1nccs1)c1cc(N2CCOCC2)nn2cc(-c3ccccc3Cl)nc12 [Compound 34] |  |  | B (EC1.5 1−25 μM) | B (Fold Activation<350%) |
| O=C(Nc1cccc(N2CCOCC2)n1)c1ccnn2cc(-c3cccc(Cl)c3)nc12 [Compound 24] | C (EC1.5>25 μM) | B (Fold Activation<350%) |  |  |
| O=C(Nc1ccnc2cc(-c3cccc(C(F)(F)F)c3)nn12)c1cnccn1 [Compound 72] |  |  | C (EC1.5>25 μM) | B (Fold Activation<350%) |
| O=C(Nc1ccnc(N2CCOCC2)c1)c1ccnn2cc(-c3ccccc3C(F)(F)F)nc12 [Compound 15] | A (EC1.5<1 μM) | A (Fold activation≧350%) |  |  |
| Cc1nc(C(=O)Nc2ccnc3cc(-c4cccc(C(F)(F)F)c4)nn23)cs1 [Compound 67] |  |  | C (EC1.5>25 μM) | B (Fold Activation<350%) |
| O=C(Nc1ccncc1)c1cc(N2CCOCC2)nn2cc(-c3ccccc3Cl)nc12 [Compound 53] | C (EC1.5>25 μM) | B (Fold Activation<350%) |  |  |
| O=C(Nc1cccc(N2CCOCC2)n1)c1ccnn2cc(-c3cccc(F)c3)nc12 [Compound 11] | C (EC1.5>25 μM) | B (Fold Activation<350%) |  |  |
| Cc1cnc(NC(=O)c2cc(N3CCOCC3)nn3cc(-c4cccc(Cl)c4)nc23)s1 [Compound 31] | C (EC1.5>25 μM) | B (Fold Activation<350%) |  |  |
| O=C(Nc1ccnc(N2CCOCC2)c1)c1ccnn2cc(-c3ccccc3F)nc12 [Compound 7] | C (EC1.5>25 μM) | B (Fold Activation<350%) |  |  |
| O=C(Nc1ccccn1)c1ccnc2cc(-c3cccc(C(F)(F)F)c3)nn12 [Compound 84] |  |  | C (EC1.5>25 μM) | B (Fold Activation<350%) |
| O=C(Nc1cccnc1)c1cc(N2CCOCC2)nn2cc(-c3ccccc3Cl)nc12 [Compound 52] | C (EC1.5>25 μM) | B (Fold Activation<350%) |  |  |

The next lines start with the values.

| TAMRA EC1.5 (μM) (SIRT1 [1]) | TAMRA % Fold Act (SIRT1 [1]) | TRP EC1.5 (μM) (SIRT1 [2]) | TRP % Fold Act (SIRT1 [2]) | Structure (SMILES) |
| --- | --- | --- | --- | --- |
| C (EC1.5>25 μM) | B (Fold Activation<350%) | C (EC1.5>25 μM) | B (Fold Activation<350%) | Cc1cnc(C(=O)Nc2ccnc3cc(-c4ccccc4C(F)(F)F)nn23)s1 [Compound 58] |
| C (EC1.5>25 μM) | B (Fold Activation<350%) | C (EC1.5>25 μM) | B (Fold Activation<350%) | O=C(Nc1nccs1)c1cc(N2CCOCC2)nn2cc(-c3ccccc3F)nc12 [Compound 37] |
| A (EC1.5<1 μM) | A (Fold activation≧350%) | C (EC1.5>25 μM) | B (Fold Activation<350%) | Cn1cnc(C(=O)Nc2ccnc3cc(-c4ccccc4C(F)(F)F)nn23)c1 [Compound 94] |
| A (EC1.5<1 μM) | A (Fold activation≧350%) | C (EC1.5>25 μM) | B (Fold Activation<350%) | COc1cccc(C(=O)Nc2ccnc3cc(-c4ccccc4C(F)(F)F)nn23)n1 [Compound 111] |
| C (EC1.5>25 μM) | B (Fold Activation<350%) |  |  | O=C(Nc1ccnc(N2CCOCC2)c1)c1ccnn2cc(-c3cccc(C(F)(F)F)c3)nc12 [Compound 19] |
| A (EC1.5<1 μM) | B (Fold Activation<350%) |  |  | O=C(Nc1cccc(N2CCOCC2)n1)c1ccnn2cc(-c3cccc(C(F)(F)F)c3)nc12 [Compound 20] |
|  |  | C (EC1.5>25 μM) | B (Fold Activation<350%) | Cc1cnc(NC(=O)c2cc(N3CCOCC3)nn3cc(-c4ccccc4Cl)nc23)s1 [Compound 35] |
| C (EC1.5>25 μM) | B (Fold Activation<350%) |  |  | O=C(Nc1nccs1)c1ccnn2cc(-c3ccccc3Cl)nc12 [Compound 3] |
|  |  | C (EC1.5>25 μM) | B (Fold Activation<350%) | Cc1cnc(C(=O)Nc2ccnc3cc(-c4cccc(C(F)(F)F)c4)nn23)s1 [Compound 69] |
| C (EC1.5>25 μM) | B (Fold Activation<350%) |  |  | O=C(Nc1ccncc1)c1cc(N2CCOCC2)nn2cc(-c3cccc(C(F)(F)F)c3)nc12 [Compound 51] |
| C (EC1.5>25 μM) | B (Fold Activation<350%) |  |  | O=C(Nc1cccnc1)c1cc(N2CCOCC2)nn2cc(-c3cccc(C(F)(F)F)c3)nc12 [Compound 50] |
